Measurements taken from patent publication US6464980B1, “MAGE-1 c-terminal immunogenic peptides” (Epimmune Inc., priority 1993, dated 2002).

Legend:
HLA-A11 class I molecule = test: class I binding assay, HLA-A11; design: species or system human; conditions: Table 2 MAGE CTL targets, column A11; unit not given
Description: (§1) Peptides comprising the CTL epitopes are synthesized and the ability to bind appropriate MHC molecules is determined in assays using, for example, purified class I molecules and radioiodinated peptides and/or cells expressing empty class I molecules by, for instance, immunofluorescent staining and flow microfluorimetry, peptide-dependent class I assembly assays, and inhibition of CTL recognition by peptide competition. Those peptides that bind to the class I molecule are further chosen for their ability to serve as targets for CTLs derived from afflicted individuals, as well as for their capacity to induce primary in vitro or in vivo CTL responses that can give rise to CTL populations capable of reacting with tumor cells as therapeutic agents. Methods for determining allele-specific peptides and peptide motifs are described in co-pending commonly owned applications U.S. Ser. No. 027,146 and U.S. Ser. No. 027,746, which are incorporated herein by reference.
(§2) These peptides were then evaluated as to their capacity to bind to the appropriate class I molecules using specific binding assays as described in copending and commonly owned application U.S. Ser. No. 08/027,746, incorporated herein by reference.

HLA-A3 class I molecule = HLA-A3 class I molecule (Homo sapiens, UniProt P04439); test: class I binding assay, HLA-A3; conditions: Table 2 MAGE CTL targets, column A3; unit not given
Description: as §1, §2

HLA-A2 class I molecule = HLA-A2 class I molecule (Homo sapiens, UniProt P04439, D140Y/D185E/D98H/E176V/E277Q/G131W/G231S/I119V/I121R/I166T/I218V/L300P/L318F/N151K/N90K/P208A/P217A/Q86G/Q94H/R138H/R169H/T345S); test: class I binding assay, HLA-A2; conditions: Table 2 MAGE CTL targets, column A2; unit not given
Description: as §1, §2

HLA-A1 class I molecule = test: class I binding assay, HLA-A1; design: species or system human; conditions: Table 2 MAGE CTL targets, column A1; unit not given
Description: as §1, §2

HLA-A24 class I molecule = test: class I binding assay, HLA-A24; design: species or system human; conditions: Table 2 MAGE CTL targets, column A24; unit not given
Description: as §1, §2

[1] = target: HLA-A1 class I molecule (human); test: class I binding assay as described in U.S. Ser. No. 08/027,746; format not described here
[2] = target: HLA-A24.1 class I molecule (human); test: as above

A11 (binding to class I molecule) (HLA-A11 class I molecule) | A3 (binding to class I molecule) (HLA-A3 class I molecule) | Molecule | also measured
0.3600 | 0.3100 | ALAETSYVK [Id 1072.38, MAGE-1 C-terminal peptide, position 271,9-mer, motif A03/11] | 
 |  | ALAETSYVKV [Id 1072.33] | A2 (binding to class I molecule) (HLA-A2 class I molecule): 0.0150
0.0051 | 0.0320 | DLVQEKYLEY [1072 40, MAGE-1 peptide, position 242, 10-mer, motif A03] | 
 |  | ETSYVKVLEY [Id 1072.28, MAGE-1 C-terminal peptide, position 274, 10-mer, motif A01/11] | A1 (binding to class I molecule) (HLA-A1 class I molecule): 0.5600
0.0340 | 0.0026 | LVQEKYLEY [Id 1072.42, MAGE-1 peptide, position 243,9-mer, motif A11] | 
0.2400 | 0.1800 | RALAETSYVK (RALAETSYVKVK) [Id 1072.39, MAGE-1 C-terminal peptide, position 270, 10-mer, motif A03/11] | 
0.0089 | 0.4300 | RVRFFFPSLR [Id 1072.37, MAGE-1 C-terminal peptide, position 290, 10-mer, motif A03/11] | 
 |  | SYVKVLEYVI [Id 1072.43, MAGE-1 C-terminal peptide, position 276, 10-mer, motif A24] | A24 (binding to class I molecule) (HLA-A24 class I molecule): 0.0360
 |  | TSYVKVLEY [Id 1072.29, MAGE-1 C-terminal peptide, position 275,9-mer, motif A01/11] | A1 (binding to class I molecule) (HLA-A1 class I molecule): 0.0990
0.0100 | 0.7100 | TSYVKVLEY [Id 1072.36, MAGE-1 C-terminal peptide, position 275,9-mer, motif A03/11] | 
 |  | YVIKVSARV [Id 1072.34] | A2 (binding to class I molecule) (HLA-A2 class I molecule): 0.0140
0.0009 | 0.0190 | YVIKVSARVR [Id 1072.41, MAGE-1 C-terminal peptide, position 283, 10-mer, motif A03] | 
 |  | TSYVKVLEY | binding value under column A1 (quantity not explained) [1]: 0.099
 |  | ETSYVKVLEY | binding value under column A1 (quantity not explained) [1]: 0.56
 |  | SYVKVLEYVI | binding value under column A24 (quantity not explained) [2]: 0.036
